{
  "source": "patent US9856218B2",
  "about": "“Inhibitors of PRMT5 and methods of their use” (Ohio State Innovation Foundation, priority 2013, dated 2018)",
  "key": {"[1]": {"test_system": "Mantle cell lymphoma cell line Jeko", "assay": "MTS anti-proliferation assay", "format": "cell-based", "protocol": "MTS proliferation assays were performed according the CellTiter 96™ Aqueous Cell Proliferation Assay Technical Bulletin (Promega, Madison, Wis.). 5×10^5 cells were plated in each well of a 96-well plate at 37° C. and assayed for proliferation at 24, 48, and 72 hr. Proliferation signal at 50% of control was used as IC50 for growth.\nFollowing the synthesis of 14 compounds, the anti-proliferation and pro-apoptotic activities of those compounds was evaluated in Mantle cell lymphoma cell line Jeko. Replicate cultures of Jeko were incubated in DMSO and the compounds for 24, 48 and 72 hours. FITC-Annexin V-PI stained flow cytometry was used to detect the apoptotic population of cells (Table 4)."}, "[2]": {"molecular_target": "T1, affinity-purified hSWI/SNF associated PRMT5 (Homo sapiens, UniProt O14744)", "T1 construct": "made in house", "T1 sequence (O14744 whole entry)": "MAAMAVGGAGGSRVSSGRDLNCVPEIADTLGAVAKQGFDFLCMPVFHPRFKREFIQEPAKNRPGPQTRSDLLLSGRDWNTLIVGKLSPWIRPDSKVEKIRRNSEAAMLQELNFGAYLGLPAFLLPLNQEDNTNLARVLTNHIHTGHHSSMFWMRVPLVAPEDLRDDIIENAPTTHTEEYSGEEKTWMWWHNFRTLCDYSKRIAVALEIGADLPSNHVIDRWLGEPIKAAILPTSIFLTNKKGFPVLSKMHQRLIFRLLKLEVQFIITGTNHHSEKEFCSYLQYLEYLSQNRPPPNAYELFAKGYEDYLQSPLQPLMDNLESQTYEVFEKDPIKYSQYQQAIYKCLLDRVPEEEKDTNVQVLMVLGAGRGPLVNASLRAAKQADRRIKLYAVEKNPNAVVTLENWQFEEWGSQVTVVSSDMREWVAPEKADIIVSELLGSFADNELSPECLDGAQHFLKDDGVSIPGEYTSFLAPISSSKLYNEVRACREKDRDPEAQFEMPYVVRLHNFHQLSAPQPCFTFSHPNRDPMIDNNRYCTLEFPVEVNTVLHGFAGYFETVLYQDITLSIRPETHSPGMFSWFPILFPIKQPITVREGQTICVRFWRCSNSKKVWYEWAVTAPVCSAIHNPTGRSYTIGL", "T1 sequence (Q9BQA1 whole entry partner)": "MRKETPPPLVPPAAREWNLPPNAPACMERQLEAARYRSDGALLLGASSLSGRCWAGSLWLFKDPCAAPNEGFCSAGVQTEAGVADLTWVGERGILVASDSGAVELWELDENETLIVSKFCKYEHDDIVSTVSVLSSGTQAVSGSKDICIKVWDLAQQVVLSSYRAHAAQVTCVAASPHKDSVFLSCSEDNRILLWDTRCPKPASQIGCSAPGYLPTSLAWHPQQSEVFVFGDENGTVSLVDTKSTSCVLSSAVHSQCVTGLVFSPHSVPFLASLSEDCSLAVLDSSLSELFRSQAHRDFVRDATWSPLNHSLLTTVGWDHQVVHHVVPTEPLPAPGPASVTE", "assay": "Histone methyltransferase assay, [3H]SAM", "format": "biochemical", "settings": "for inhibition of PRMT5 methylase activity, potency among inhibitors: FIG. 33A", "protocol": "(§1) Histone methylation was performed in the presence of DMSO, and 1-40 μM inhibitor compounds. […] After 1.5 h incubation at 30° C., reaction mixtures were spotted on Whatman P-81 filter paper, washed five times with 10 mL of […] sodium carbonate buffer (pH 9.0) to remove unincorporated [3H]SAM, and methylated peptides were detected by scintillation counting.\nType II PRMT enzymes repress gene transcription and symmetrically dimethylate H3R8 and H4R3, while type I PRMT enzymes activate gene transcription and asymmetrically dimethylate H4R3. Purified PRMT5, PRMT1, PRMT4 and PRMT7 were obtained to perform the assay.\nas §1, with “HLCL-32, HLCL-10, HLCL-61 and HLCL-64.” for “inhibitor compounds.”, “After a” for “After”, “C.” for “C.,”, “[^3H]SAM,” for “[3H]SAM,”"}, "[3]": {"test_system": "symmetrically dimethylated H3 (H3R8me2) and H4 (H4R3me2) in AML samples", "assay": "Western blotting of PRMT5 histone marks", "format": "cell-based", "settings": "FIG. 33B, listed as C12", "protocol": "Whole cell lysates were prepared by suspending cell pellets in RIPA buffer for 20 min (1% NP-40, 0.1% SDS, 150 mM NaCl, 50 mM Tris, pH 8.0), then supplemented with 1× complete EDTA free protease inhibitor (Roche) and 1× PhosStop (Roche). Lysates were separated by 4-20% SDS-PAGE and transferred to PVDF membrane (GE Healthcare, Piscataway, N.J.). Membranes were blocked with 5% milk or BSA in 1×TBS with 0.1% Tween 20 for 1 hour at room temperature with shaking. Primary antibodies for ACTIN, GAPDH and FLT3 (Santa Cruz Biotechnology, Santa Cruz Calif.), P65 (Cell signaling), PRMT5 and SP1 (Millipore), H4R3, H3R8, H3 and H4 (Abcam), were diluted 1:1000 or 1:2000 in 5% milk or BSA and incubated for 1-2 hr at room temperature. Membranes were washed using 1×TBS-T, incubated with HRP-conjugated secondary antibodies diluted in 1×TBS-T with 5% milk or BSA, washed, and developed using SuperSignal West Dura Chemiluminescent Substrate (Thermo Scientific). Whole cell lysate (at least 500 μg) was used to pull down protein complexes using Catch and Release v2.0 Reversible Immunoprecipitation System (Millipore) and ˜4 μg antibodies against PRMT5, SP1, p65 and 1 μg normal IgG as negative control (Millipore). Denatured pull down samples were subjected to regular western blotting with exception of using TrueBlot IP secondary antibody (Rockland) for immunodetection. […]"}, "[4]": {"test_system": "AML cells (MV4-11 (FLT3-ITD) and Kasumi-1 (KITmut))", "assay": "Differentiation marker CD11b, flow cytometry", "format": "cell-based", "settings": "MV4-11 and Kasumi-1", "protocol": "Cells (1×10^6) were washed and passed through a […] filter (BD), then re-suspended in 200 μL binding buffer with or without 5 μL AnnexinV (for apoptosis detection) or CD11b (for maturation detection) antibody (BD Biosciences, Billerica, Mass.). After 15 min. of incubation cells were washed with PBS, re-suspended in 500 μL flow buffer and analyzed on a FACSCalibur cytometer (BD Biosciences). For apoptosis detection, 5 μL propidium iodide (PI) (BD Biosciences) was added to cell before running flow cytometry. Sorting for GFP-positive cells was carried out on BD FACS Aria instrument after filtering and washing cells 2× with ice cold PBS supplemented with 2% calf bovine serum and re-suspending in FACS buffer.\nPRMT5 inhibition by C12 was also effective in promoting apoptosis and differentiation.\nThe increase in CD11b expression in AML cells lines followed a dose-dependent manner."}},
  "note": "“Also recorded” adds a separate entry of the source.",
  "data": [
    {"smiles": "CCn1c2ccccc2c2cc(CNCc3ccccc3OC)ccc21", "note": "[HLCL-61]", "values": [
      {"measurement": "IC50", "setting": "[1]; 24 h incubation", "value": 44, "unit": "µM"},
      {"measurement": "IC50", "setting": "[1]; 48 h incubation", "value": 29, "unit": "µM"},
      {"measurement": "IC50", "setting": "[1]; 72 h incubation", "value": 28, "unit": "µM"},
      {"measurement": "inhibition of PRMT5 enzyme", "setting": "[2]; 10 μM, FIG. 17B", "value": "the only enzyme that is affected is PRMT5"},
      {"measurement": "IC50", "setting": "[2]; FIG. 16, 1-40 μM compound, HeLa S3 core histones, read-out: PRMT5 methylation activity IC50", "value": "~5", "unit": "µM"},
      {"measurement": "inhibition of PRMT5 methylase activity, potency among inhibitors", "setting": "[2]; listed as C12", "value": "most potent of these inhibitors"},
      {"measurement": "inhibition of PRMT5 methylase activity, potency among inhibitors", "setting": "[2]; listed as CMPD 12", "value": "most potent in inhibiting enzymatic activity of PRMT5"},
      {"measurement": "methylation inhibition of histones H3 and H4", "setting": "[3]", "value": "most effective; also recorded: down-regulation of symmetrically dimethylated H3 (H3R8me2) and H4 (H4R3me2)"},
      {"measurement": "early differentiation marker CD11b", "setting": "[4]", "value": "dose-dependent up-regulation"}
    ]}
  ]
}
